Reference: the supplement of paper PMC6045584
± gives the standard deviation of the averaged measurements.

Tests used:
17-AAG = compound: C=CCNC1=C2C[C@@H](C)C[C@H](OC)[C@H](O)[C@@H](C)/C=C(\C)[C@H](OC(N)=O)[C@@H](OC)/C=C\C=C(/C)C(=O)NC(=CC1=O)C2=O [17-AAG]; assay: surviving fraction relative to DMSO-only wells; higher = less growth inhibition; details: exposure time: 5 days
Outline: (§1)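 Inhibitors were tested at 0.5, 1, 5, 10, 50, 100, 500 and 1000 nM, applied continuously for five days beginning 24 hours after log-phase tumour cells were seeded at 250–500 per well in 384-well plates. CellTiter-Glo luminescence served as the viability measure, expressed as surviving fraction against the median of DMSO-only wells. Each line, screened three times, was kept only with replicate Pearson r >0.7 and median Z' >0.3.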

RESVERATROL = compound: Oc1ccc(/C=C/c2cc(O)cc(O)c2)cc1 [RESVERATROL]; assay: as above; details: exposure time: 5 days
Outline: as §1

Test System: SG27 HEADNECK
- surviving fraction (17-AAG; 0.5 nM): 1.046 ± 0.0051
- surviving fraction (17-AAG; 1 nM): 1.07 ± 0.073
- surviving fraction (17-AAG; 5 nM): 0.913 ± 0.039
- surviving fraction (17-AAG; 10 nM): 0.93 ± 0.026
- surviving fraction (17-AAG; 50 nM): 1.31 ± 0.16
- surviving fraction (17-AAG; 100 nM): 1.1 ± 0.24
- surviving fraction (17-AAG; 500 nM): 0.274 ± 0.044
- surviving fraction (17-AAG; 1000 nM): 0.111 ± 0.014
- surviving fraction (RESVERATROL; 0.5 nM): 1.15 ± 0.14
- surviving fraction (RESVERATROL; 1 nM): 1.02 ± 0.069
- surviving fraction (RESVERATROL; 5 nM): 1.03 ± 0.067
- surviving fraction (RESVERATROL; 10 nM): 1.06 ± 0.1
- surviving fraction (RESVERATROL; 50 nM): 1.04 ± 0.083
- surviving fraction (RESVERATROL; 100 nM): 1.17 ± 0.059
- surviving fraction (RESVERATROL; 500 nM): 1.15 ± 0.085
- surviving fraction (RESVERATROL; 1000 nM): 1.08 ± 0.12

Test System: SG28 HEADNECK
- surviving fraction (17-AAG; 0.5 nM): 0.93 ± 0.048
- surviving fraction (17-AAG; 1 nM): 0.918 ± 0.069
- surviving fraction (17-AAG; 5 nM): 0.86 ± 0.05
- surviving fraction (17-AAG; 10 nM): 0.776 ± 0.064
- surviving fraction (17-AAG; 50 nM): 0.551 ± 0.11
- surviving fraction (17-AAG; 100 nM): 0.322 ± 0.016
- surviving fraction (17-AAG; 500 nM): 0.0967 ± 0.014
- surviving fraction (17-AAG; 1000 nM): 0.0863 ± 0.0032
- surviving fraction (RESVERATROL; 0.5 nM): 1.03 ± 0.12
- surviving fraction (RESVERATROL; 1 nM): 1.07 ± 0.1
- surviving fraction (RESVERATROL; 5 nM): 1.15 ± 0.11
- surviving fraction (RESVERATROL; 10 nM): 1 ± 0.057
- surviving fraction (RESVERATROL; 50 nM): 1.01 ± 0.005
- surviving fraction (RESVERATROL; 100 nM): 1 ± 0.051
- surviving fraction (RESVERATROL; 500 nM): 1.06 ± 0.053
- surviving fraction (RESVERATROL; 1000 nM): 1.03 ± 0.2

Test System: SG31 HEADNECK
- surviving fraction (17-AAG; 0.5 nM): 0.87 ± 0.024
- surviving fraction (17-AAG; 1 nM): 0.911 ± 0.052
- surviving fraction (17-AAG; 5 nM): 0.874 ± 0.15
- surviving fraction (17-AAG; 10 nM): 0.753 ± 0.14
- surviving fraction (17-AAG; 50 nM): 0.642 ± 0.064
- surviving fraction (17-AAG; 100 nM): 0.302 ± 0.034
- surviving fraction (17-AAG; 500 nM): 0.047 ± 0.0092
- surviving fraction (17-AAG; 1000 nM): 0.0317 ± 0.0029
- surviving fraction (RESVERATROL; 0.5 nM): 1.1 ± 0.23
- surviving fraction (RESVERATROL; 1 nM): 1.23 ± 0.18
- surviving fraction (RESVERATROL; 5 nM): 1.03 ± 0.095
- surviving fraction (RESVERATROL; 10 nM): 1.13 ± 0.095
- surviving fraction (RESVERATROL; 50 nM): 1.05 ± 0.15
- surviving fraction (RESVERATROL; 100 nM): 0.975 ± 0.19
- surviving fraction (RESVERATROL; 500 nM): 1.13 ± 0.18
- surviving fraction (RESVERATROL; 1000 nM): 1.42 ± 0.32

Test System: SG32 HEADNECK
- surviving fraction (17-AAG; 0.5 nM): 0.955 ± 0.12
- surviving fraction (17-AAG; 1 nM): 0.834 ± 0.19
- surviving fraction (17-AAG; 5 nM): 0.875 ± 0.16
- surviving fraction (17-AAG; 10 nM): 0.881 ± 0.14
- surviving fraction (17-AAG; 50 nM): 0.528 ± 0.097
- surviving fraction (17-AAG; 100 nM): 0.259 ± 0.042
- surviving fraction (17-AAG; 500 nM): 0.0457 ± 0.0023
- surviving fraction (17-AAG; 1000 nM): 0.034 ± 0.0044
- surviving fraction (RESVERATROL; 0.5 nM): 1.02 ± 0.14
- surviving fraction (RESVERATROL; 1 nM): 0.975 ± 0.06
- surviving fraction (RESVERATROL; 5 nM): 1.16 ± 0.25
- surviving fraction (RESVERATROL; 10 nM): 0.989 ± 0.051
- surviving fraction (RESVERATROL; 50 nM): 0.999 ± 0.018
- surviving fraction (RESVERATROL; 100 nM): 1.05 ± 0.092
- surviving fraction (RESVERATROL; 500 nM): 0.989 ± 0.2
- surviving fraction (RESVERATROL; 1000 nM): 1.01 ± 0.11

Test System: SG43 HEADNECK
- surviving fraction (17-AAG; 0.5 nM): 1.1 ± 0.2
- surviving fraction (17-AAG; 1 nM): 1.1 ± 0.22
- surviving fraction (17-AAG; 5 nM): 1.05 ± 0.043
- surviving fraction (17-AAG; 10 nM): 0.801 ± 0.25
- surviving fraction (17-AAG; 50 nM): 0.302 ± 0.069
- surviving fraction (17-AAG; 100 nM): 0.074 ± 0.034
- surviving fraction (17-AAG; 500 nM): 0.03 ± 0.004
- surviving fraction (17-AAG; 1000 nM): 0.028 ± 0.0062
- surviving fraction (RESVERATROL; 0.5 nM): 0.856 ± 0.14
- surviving fraction (RESVERATROL; 1 nM): 1.06 ± 0.048
- surviving fraction (RESVERATROL; 5 nM): 0.867 ± 0.23
- surviving fraction (RESVERATROL; 10 nM): 0.914 ± 0.025
- surviving fraction (RESVERATROL; 50 nM): 0.822 ± 0.13
- surviving fraction (RESVERATROL; 100 nM): 0.794 ± 0.19
- surviving fraction (RESVERATROL; 500 nM): 0.848 ± 0.14
- surviving fraction (RESVERATROL; 1000 nM): 0.898 ± 0.22

Test System: SIHA CERVIX
- surviving fraction (17-AAG; 0.5 nM): 1.01 ± 0.073
- surviving fraction (17-AAG; 1 nM): 0.939 ± 0.033
- surviving fraction (17-AAG; 5 nM): 0.969 ± 0.18
- surviving fraction (17-AAG; 10 nM): 0.895 ± 0.032
- surviving fraction (17-AAG; 50 nM): 0.581 ± 0.077
- surviving fraction (17-AAG; 100 nM): 0.211 ± 0.012
- surviving fraction (17-AAG; 500 nM): 0.171 ± 0.0082
- surviving fraction (17-AAG; 1000 nM): 0.18 ± 0.017
- surviving fraction (RESVERATROL; 0.5 nM): 1.02 ± 0.034
- surviving fraction (RESVERATROL; 1 nM): 1.05 ± 0.041
- surviving fraction (RESVERATROL; 5 nM): 1.116 ± 0.011
- surviving fraction (RESVERATROL; 10 nM): 1.14 ± 0.066
- surviving fraction (RESVERATROL; 50 nM): 1.07 ± 0.072
- surviving fraction (RESVERATROL; 100 nM): 1.09 ± 0.045
- surviving fraction (RESVERATROL; 500 nM): 1.09 ± 0.066
- surviving fraction (RESVERATROL; 1000 nM): 1.15 ± 0.02

Test System: SJSA1 BONE
- surviving fraction (17-AAG; 0.5 nM): 0.84 ± 0.049
- surviving fraction (17-AAG; 1 nM): 0.865 ± 0.064
- surviving fraction (17-AAG; 5 nM): 0.872 ± 0.023
- surviving fraction (17-AAG; 10 nM): 0.846 ± 0.029
- surviving fraction (17-AAG; 50 nM): 0.217 ± 0.02
- surviving fraction (17-AAG; 100 nM): 0.106 ± 0.0032
- surviving fraction (17-AAG; 500 nM): 0.0517 ± 0.0055
- surviving fraction (17-AAG; 1000 nM): 0.0433 ± 0.0011
- surviving fraction (RESVERATROL; 0.5 nM): 1.62 ± 0.083
- surviving fraction (RESVERATROL; 1 nM): 1.74 ± 0.059
- surviving fraction (RESVERATROL; 5 nM): 1.65 ± 0.053
- surviving fraction (RESVERATROL; 10 nM): 1.79 ± 0.04
- surviving fraction (RESVERATROL; 50 nM): 1.67 ± 0.13
- surviving fraction (RESVERATROL; 100 nM): 1.74 ± 0.092
- surviving fraction (RESVERATROL; 500 nM): 1.61 ± 0.13
- surviving fraction (RESVERATROL; 1000 nM): 1.78 ± 0.078

Test System: SKBR3 BREAST
- surviving fraction (17-AAG; 0.5 nM): 0.752 ± 0.21
- surviving fraction (17-AAG; 1 nM): 0.76 ± 0.055
- surviving fraction (17-AAG; 5 nM): 0.497 ± 0.033
- surviving fraction (17-AAG; 10 nM): 0.365 ± 0.026
- surviving fraction (17-AAG; 50 nM): 0.25 ± 0.018
- surviving fraction (17-AAG; 100 nM): 0.205 ± 0.013
- surviving fraction (17-AAG; 500 nM): 0.177 ± 0.019
- surviving fraction (17-AAG; 1000 nM): 0.173 ± 0.0038
- surviving fraction (RESVERATROL; 0.5 nM): 0.966 ± 0.15
- surviving fraction (RESVERATROL; 1 nM): 1.06 ± 0.048
- surviving fraction (RESVERATROL; 5 nM): 1.1 ± 0.1
- surviving fraction (RESVERATROL; 10 nM): 1.07 ± 0.076
- surviving fraction (RESVERATROL; 50 nM): 1.08 ± 0.053
- surviving fraction (RESVERATROL; 100 nM): 1.09 ± 0.028
- surviving fraction (RESVERATROL; 500 nM): 1.11 ± 0.12
- surviving fraction (RESVERATROL; 1000 nM): 1.04 ± 0.055

Test System: SNU475 LIVER
- surviving fraction (17-AAG; 0.5 nM): 0.864 ± 0.017
- surviving fraction (17-AAG; 1 nM): 0.884 ± 0.013
- surviving fraction (17-AAG; 5 nM): 0.792 ± 0.036
- surviving fraction (17-AAG; 10 nM): 0.418 ± 0.062
- surviving fraction (17-AAG; 50 nM): 0.259 ± 0.02
- surviving fraction (17-AAG; 100 nM): 0.234 ± 0.0059
- surviving fraction (17-AAG; 500 nM): 0.248 ± 0.013
- surviving fraction (17-AAG; 1000 nM): 0.23 ± 0.029
- surviving fraction (RESVERATROL; 0.5 nM): 0.98 ± 0.043
- surviving fraction (RESVERATROL; 1 nM): 1.04 ± 0.029
- surviving fraction (RESVERATROL; 5 nM): 1.02 ± 0.06
- surviving fraction (RESVERATROL; 10 nM): 0.988 ± 0.029
- surviving fraction (RESVERATROL; 50 nM): 0.9453 ± 0.006
- surviving fraction (RESVERATROL; 100 nM): 1.01 ± 0.014
- surviving fraction (RESVERATROL; 500 nM): 0.99 ± 0.035
- surviving fraction (RESVERATROL; 1000 nM): 1.04 ± 0.017

Test System: SUM44 BREAST
- surviving fraction (17-AAG; 0.5 nM): 0.897 ± 0.02
- surviving fraction (17-AAG; 1 nM): 0.863 ± 0.051
- surviving fraction (17-AAG; 5 nM): 0.759 ± 0.026
- surviving fraction (17-AAG; 10 nM): 0.522 ± 0.026
- surviving fraction (17-AAG; 50 nM): 0.539 ± 0.021
- surviving fraction (17-AAG; 100 nM): 0.494 ± 0.014
- surviving fraction (17-AAG; 500 nM): 0.456 ± 0.017
- surviving fraction (17-AAG; 1000 nM): 0.464 ± 0.012
- surviving fraction (RESVERATROL; 0.5 nM): 1.1 ± 0.1
- surviving fraction (RESVERATROL; 1 nM): 1.18 ± 0.28
- surviving fraction (RESVERATROL; 5 nM): 1.19 ± 0.27
- surviving fraction (RESVERATROL; 10 nM): 1.25 ± 0.36
- surviving fraction (RESVERATROL; 50 nM): 1.1 ± 0.17
- surviving fraction (RESVERATROL; 100 nM): 1.21 ± 0.26
- surviving fraction (RESVERATROL; 500 nM): 1.2 ± 0.3
- surviving fraction (RESVERATROL; 1000 nM): 1.31 ± 0.41
